In one experiment the test system is E. coli (EC D1-209). Nature of the experiment: Antibacterial MIC, gram negative. It counts as cell-based. Particulars: CLSI methodology, 35° C., 18-24 hours.
A further experiment has as its system S. aureus (SA RN450). The experiment can be described thus: Antibacterial MIC, gram positive. It counts as cell-based. Particulars: CLSI methodology, 35° C., 18-24 hours.
In the next experiment the test system is SMN2 mRNA. Nature of the experiment: In vitro cell-free splicing assay for inclusion of exon 7. It counts as biochemical. Particulars: HeLa cell nuclear extract, 30° C., 3 hours. The method in brief: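 ^32P-labelled SMN2 minigene pre-mRNA (exon 6 to part of exon 8; 10 fmol) spliced 3 h at 30 °C in 30% HeLa nuclear extract with 0.5 mM ATP, 1.56 mM MgCl2, pH 7.4, plus compound or buffer. Exon 7 inclusion quantified by denaturing PAGE and phosphorimaging. Emax is maximal % inclusion and Cmax the lowest concentration (μM) reaching it, reported as binned grades.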

On to `CN(C)C1C(O)=C(C(N)=O)C(=O)C2(O)C(O)=C3C(=O)c4c(O)ccc(-c5cccc(C(=O)NCc6ccco6)c5)c4CC3CC12` (stereo not shown) [Y], for which, in the experiment with E. coli (EC D1-209), the “MIC Gram Negative (EC D1-209)” value is reported as “* (weak antibacterial activity (greater than about 8 μg/mL))”. Further, in the experiment with S. aureus (SA RN450), the “MIC Gram Positive (SA RN450)” value is recorded as “*** (Good antibacterial activity (e.g., less than about 4 μg/mL))”. Further, in the experiment with SMN2 mRNA, the “Cmax (lowest compound concentration at which the maximum exon 7 inclusion occurs)” value (from here on “Cmax”) is on record as “* (concentrations of greater than 40 μM)” and the “Emax (maximum percentage exon 7 inclusion observed)” value is “** (values of 10-20%)”.

What is called MIC is the least concentration at which growth counts as inhibited. Higher therefore signals weaker potency. `CN(C)CCCCNCc1ccc(O)c2c1C[C@H]1C[C@H]3[C@H](N(C)C)C(O)=C(C(N)=O)C(=O)[C@@]3(O)C(O)=C1C2=O` [Compound CN, (4S,4aS,5aR,12aS)-4-Dimethylamino-7-[(4-dimethylamino-butylamino)-methyl]-3,10,12,12a-tetrahydroxy-1,11-dioxo-1,4,4a,5,5a,6,11,12a-octahydro-naphthacene-2-carboxylic Acid Amide] registered a minimal inhibitory concentration (MIC) against E. coli (EC D1-209) (Escherichia coli) of over 8 µg/mL. This molecule also came in with a minimum inhibitory concentration (MIC) in the experiment on S. aureus (SA RN450) (Staphylococcus aureus) of over 8 µg/mL. Besides, in the experiment with SMN2 mRNA, the “Cmax” value is reported as “*** (concentrations of less than 10 μM)” and the “Emax (maximum percentage exon 7 inclusion observed)” value is “** (values of 10-20%)”.

For `CN(C)CCCNC(=O)c1cccc(-c2ccc(O)c3c2CC2CC4C(N(C)C)C(O)=C(C(N)=O)C(=O)C4(O)C(O)=C2C3=O)c1` (stereo not shown) [P], the “MIC Gram Negative (EC D1-209)” value against E. coli (EC D1-209) was “* (weak antibacterial activity (greater than about 8 μg/mL))”. In addition, the “MIC Gram Positive (SA RN450)” value with S. aureus (SA RN450) is “** (modest antibacterial activity (between about 4 and 8 μg/mL))”. Besides, in the experiment on SMN2 mRNA, the “Cmax” value was “** (concentrations between 40 and 10 μM)”; the “Emax (maximum percentage exon 7 inclusion observed)” value is “** (values of 10-20%)”.

As for `CN(C)C1C(O)=C(C(N)=O)C(=O)C2(O)C(O)=C3C(=O)c4c(O)ccc(C(=O)CNc5cccnc5)c4CC3CC12` (stereo not shown) [CB], the “MIC Gram Negative (EC D1-209)” value against E. coli (EC D1-209) is “* (weak antibacterial activity (greater than about 8 μg/mL))”. Further, the “MIC Gram Positive (SA RN450)” value with S. aureus (SA RN450) is on record as “* (weak antibacterial activity (greater than about 8 μg/mL))”. In the experiment with SMN2 mRNA, the “Cmax” value is “** (concentrations between 40 and 10 μM)”; the “Emax (maximum percentage exon 7 inclusion observed)” value is reported as “** (values of 10-20%)”.

As to `CN(C)C1C(O)=C(C(N)=O)C(=O)C2(O)C(O)=C3C(=O)c4c(O)ccc(-c5cccc(CCCO)c5)c4CC3CC12` (stereo not shown) [CM], the “MIC Gram Negative (EC D1-209)” value in the experiment with E. coli (EC D1-209) was “* (weak antibacterial activity (greater than about 8 μg/mL))”. The “MIC Gram Positive (SA RN450)” value against S. aureus (SA RN450) was “*** (Good antibacterial activity (e.g., less than about 4 μg/mL))”. For the same molecule, in the experiment with SMN2 mRNA, the “Cmax” value is reported as “*** (concentrations of less than 10 μM)” and the “Emax (maximum percentage exon 7 inclusion observed)” value is given as “** (values of 10-20%)”.

For `CN1CCN(Cc2ccc(-c3ccc(O)c4c3CC3CC5C(N(C)C)C(O)=C(C(N)=O)C(=O)C5(O)C(O)=C3C4=O)o2)CC1` (stereo not shown) [AY], the “MIC Gram Negative (EC D1-209)” value against E. coli (EC D1-209) was “* (weak antibacterial activity (greater than about 8 μg/mL))”. The “MIC Gram Positive (SA RN450)” value with S. aureus (SA RN450) is “*** (Good antibacterial activity (e.g., less than about 4 μg/mL))”. In the experiment on SMN2 mRNA, the “Cmax” value is recorded as “*** (concentrations of less than 10 μM)” and the “Emax (maximum percentage exon 7 inclusion observed)” value was “*** (values greater than 20%)”.

Take `CN(C)C1C(O)=C(C(N)=O)C(=O)C2(O)C(O)=C3C(=O)c4c(O)ccc(-c5cccc(C(=O)NCCO)c5)c4CC3CC12` (stereo not shown) [CK]: in the experiment on E. coli (EC D1-209), the “MIC Gram Negative (EC D1-209)” value was “* (weak antibacterial activity (greater than about 8 μg/mL))”. The “MIC Gram Positive (SA RN450)” value against S. aureus (SA RN450) is listed as “*** (Good antibacterial activity (e.g., less than about 4 μg/mL))”. For the same molecule, in the experiment with SMN2 mRNA, the “Cmax” value is “** (concentrations between 40 and 10 μM)”; the “Emax (maximum percentage exon 7 inclusion observed)” value was “** (values of 10-20%)”.

The values above are taken from US7935687B2, “Methods for treating spinal muscular atrophy using tetracycline compounds” (Paratek Pharmaceuticals, Inc., priority 2007, dated 2011).
